Molecules are shown by their SMILES.

The test system of test [1] is winter wheat. Description: Greenhouse test, herbicidal activity of glyphosate SL with amine alkoxylate against winter wheat. Particulars: scored vs untreated control. The format is in vivo, winter wheat (cv. Cubus). Here is the method: (§1) To carry out greenhouse tests, the winter wheats (cv. Cubus) or soybeans (cv. Oxford) were sown or potted in loamy sand at a sowing depth of 1-2 cm. As soon as the plants had reached a height of 10 to 25 cm (i.e. approx. 10 to 21 days after sowing), the spray mixtures were applied to the plants in a spray cabinet.
(§2) A concentrated formulation comprising glyphosate isoproylammonium dissolved in water and amine alkoxylate of example 2 were diluted with fully demineralized water and were applied at a water application rate of 375 l/ha ([…]). The temperatures during the experimental period, which lasted for 3 to 4 weeks, were between 18 and 35° C. During this time, the test plants received optimal irrigation, the nutrient supply being effected via the irrigation water.
(§3) The herbicidal activity was assessed by scoring the treated plants in comparison with the untreated control plants (table 1). The assessment scale goes from 0% to 100% activity. 100% activity means complete dying at least of the aerial plant parts. In contrast, 0% activity means that no differences were observed between treated and untreated plants. The results in table 1 and 2 confirm the increased activity of the active substance by addition of the amine alkoxylate.

Test [2] deals with soybean. Description: Greenhouse test, herbicidal activity of glyphosate SL with amine alkoxylate against soybean. The format is in vivo, soybean (cv. Oxford). Particulars: scored vs untreated control. How it is done:
as §1, §2, §3

The mark [3] stands for this setting: glyphosate 140 g/ha, amine alkoxylate (where present) 300 g/ha, 375 l/ha water.
The mark [4] stands for this setting: glyphosate 280 g/ha, with amine alkoxylate where named.

As for `O=C(O)CNCP(=O)(O)O` [glyphosate], the “Activity [%] after 14 days” value is given as 64% in test [1] (setting [3]), 71% in test [1] (setting [4]), 29% in test [2] (setting [3]) and 36% in test [2] (setting [4]). The “Activity [%] after 21 days” value in test [1] (setting [3]) is recorded as 73%; in test [1] (setting [4]), 81%; in test [2] (setting [3]), 38%; in test [2] (setting [4]) it was 40%. The “Activity [%] after 28 days” value in test [1] (setting [3]) is reported as 73%; in test [1] (setting [4]) it was 81%; in test [2] (setting [3]), 38%; in test [2] (setting [4]), 40%.

These data come from patent US20110201497A1, “Composition Comprising A Pesticide and an Alkoxylate of Iso-Heptadecylamine” (BASF SE, priority 2010, published 2011).
